Values after ≈ are worked out from the molar mass of the structure shown. Like-named read-outs stand apart in the source and are kept apart here.
Columns and labels:
Test in all cases: microbe, parasite or virus in culture
Assay type in all cases: cell-based
[1] = test system: M. tbc PRAHA 4; details: Mycobacterium tuberculosis, read-out: Minimum inhibitory concentrations M. tbc PRAHA 4
[2] = test system: M. tbc 234/2005; details: Mycobacterium tuberculosis, read-out: Minimum inhibitory concentrations M. tbc 234/2005
[3] = test system: M. tbc PRAHA 1; details: Mycobacterium tuberculosis, read-out: Minimum inhibitory concentrations M. tbc PRAHA 1
[4] = test system: four MDR-TB strains and one XDR-TB strain; details: Mycobacterium tuberculosis, read-out: MIC against resistant M. tuberculosis strains
[5] = test system: M. tbc PRAHA 131; details: Mycobacterium tuberculosis, read-out: Minimum inhibitory concentrations M. tbc PRAHA 131
[6] = test system: M. tbc 9449/2007; details: Mycobacterium tuberculosis, read-out: Minimum inhibitory concentrations M. tbc 9449/2007

| Structure (SMILES) | MIC ([1]; PRAHA4, 336 h) | MIC ([1]; PRAHA4, 504 h) | MIC ([2]; 234/2005, 336 h) | MIC ([2]; 234/2005, 504 h) | MIC ([3]; PRAHA1, 336 h) | MIC ([3]; PRAHA1, 504 h) | MIC [4] | MIC ([5]; PRAHA131, 336 h) | MIC ([5]; PRAHA131, 504 h) | MIC ([6]; 9449/2007, 336 h) | MIC ([6]; 9449/2007, 504 h) |
| --- | --- | --- | --- | --- | --- | --- | --- | --- | --- | --- | --- |
| Cc1ccc(CNc2nccnc2C(N)=O)cc1 [Compound 8, 3-[(4-Methylbenzyl)amino]pyrazine-2-carboxamide] | 250 µM (≈ 60.6 µg/mL) | 250 µM (≈ 60.6 µg/mL) | 250 µM (≈ 60.6 µg/mL) | 250 µM (≈ 60.6 µg/mL) | 250 µM (≈ 60.6 µg/mL) | 250 µM (≈ 60.6 µg/mL) | 250 µM (≈ 60.6 µg/mL) | 250 µM (≈ 60.6 µg/mL) | 250 µM (≈ 60.6 µg/mL) | 250 µM (≈ 60.6 µg/mL) | 250 µM (≈ 60.6 µg/mL) |
| NC(=O)c1nccnc1NCc1ccc(N)cc1 [Compound 9, 3-[(4-Aminobenzyl)amino]pyrazine-2-carboxamide] | 62.5 µM (≈ 15.2 µg/mL) | 62.5 µM (≈ 15.2 µg/mL) | 62.5 µM (≈ 15.2 µg/mL) | 62.5 µM (≈ 15.2 µg/mL) | 62.5 µM (≈ 15.2 µg/mL) | 62.5 µM (≈ 15.2 µg/mL) | 62.5 µM (≈ 15.2 µg/mL) | 62.5 µM (≈ 15.2 µg/mL) | 125 µM (≈ 30.4 µg/mL) | 62.5 µM (≈ 15.2 µg/mL) | 62.5 µM (≈ 15.2 µg/mL) |
| NNC(=O)c1ccncc1 [INH, isoniazid, reference compound] | 15.6 µM (≈ 2.14 µg/mL) | 31.2 µM (≈ 4.29 µg/mL) | 15.6 µM (≈ 2.14 µg/mL) | 15.6 µM (≈ 2.14 µg/mL) | 15.6 µM (≈ 2.14 µg/mL) | 15.6 µM (≈ 2.14 µg/mL) |  | 15.6 µM (≈ 2.14 µg/mL) | 31.2 µM (≈ 4.29 µg/mL) | 62.5 µM (≈ 8.57 µg/mL) | 62.5 µM (≈ 8.57 µg/mL) |
| CO[C@H]1/C=C/O[C@@]2(C)Oc3c(C)c(O)c4c(O)c(c(/C=N/N5CCN(C)CC5)c(O)c4c3C2=O)NC(=O)/C(C)=C\C=C\[C@H](C)[C@H](O)[C@@H](C)[C@@H](O)[C@@H](C)[C@H](OC(C)=O)[C@@H]1C [RFM, rifampicin, reference compound] | > 15.6 µM | > 15.6 µM | > 15.6 µM | > 15.6 µM | > 15.6 µM | > 15.6 µM |  | > 15.6 µM | > 15.6 µM | > 15.6 µM | > 15.6 µM |

— article PMC6155776, “Synthesis of Novel Pyrazinamide Derivatives Based on 3-Chloropyrazine-2-carboxamide and Their Antimicrobial Evaluation” (Molecules : A Journal of Synthetic Chemistry and Natural …, 2017)
